# Laboratory results taken from patent publication EP2487157A1, “Enantioselective synthesis method of 4-aminoalcoholquinoline derivatives and the use” (Université de Picardie Jules Verne, priority 2011, dated 2012).
# pIC50: −log10 of the molar value. Like-named read-outs stand apart in the source and are kept apart here.
# How the values were obtained:
# [1] = tested on: Plasmodium falciparum chloroquine resistant (W2); test: Antimalarial test, tritiated hypoxanthine incorporation, chloroquine resistant clone W2; format: cell-based; conditions: read-out: 50% inhibitory concentration followed by uncertainty about the value expressed in percentage
# Procedure: (§1) Screenings of the compound according to the present invention (1f, 1h, 1i) and their isomers (1a, 1c, 1d)on strains of Plasmodium falciparum sensitive (3D7) and chloroquine resistant (W2) were realized.
# (§2) The Clones of W2 and 3D7 were grown. […] Melfloquine (MQ) at the same concentrations and chloroquine (CQ) at the concentrations adapted to each clone were used as the Controls. 8 negative controls were distributed on each plate.
# (§3) Then, the molecules to be tested were diluted extemporaneously in the above preparation of the plates. The growth medium was deposited after drying plates. The study was initiated when the growth medium was at the ring stage and then stopped after 1 parasitic cycle (45h).
# (§4) The activity was calculated by using the Pk-Fit software on all the experimental points obtained for each molecule (except the highest concentration). The results shown in table 5 are expressed in nM and correspond to calculate a 50% inhibitory concentration followed by un certainty about the value expressed in percentage. Table 5. The biological effect of the compounds on Plasmodium falciparum
# [2] = tested on: Plasmodium falciparum sensitive (3D7); test: Antimalarial test, tritiated hypoxanthine incorporation, sensitive clone 3D7; format: cell-based; conditions: read-out: 50% inhibitory concentration followed by uncertainty about the value expressed in percentage
# Procedure: as §1, §2, §3, §4
# E. coli DSM 1103 = test: Antibacterial test, MIC by CLSI broth dilution; format: cell-based; conditions: 18 to 24 h at 37°C, Mueller-Hinton
# Procedure: (§5) The minimum inhibitory concentrations (MICs) were determined according to the recommendations of the Clinical and Laboratory Standards Institute (CLSI)^[27]. […] After incubation for 18 to 24 h (48 h for Enterococcus faecalis) at 37°C, the MIC was determined as the product concentration of the first well with no visual signs of bacterial growth (no disorder in the well). […] Table6. The antibacterial effects of the compounds
# P. aeruginosa DSM 1117 = test: Antibacterial test, MIC by CLSI broth dilution; format: cell-based; conditions: 18 to 24 h at 37°C, Mueller-Hinton
# Procedure: as §5
# S. aureus CIP 103429 = test: Antibacterial test, MIC by CLSI broth dilution; format: cell-based; conditions: 18 to 24 h at 37°C, Mueller-Hinton
# Procedure: as §5
# E. faecalis CIP 103214 = test: Antibacterial test, MIC by CLSI broth dilution; format: cell-based, Enterococcus faecalis; conditions: 48 h at 37°C, Mueller-Hinton
# Procedure: as §5
# SAAM 12 = test: Antibacterial test, MIC by CLSI broth dilution; format: cell-based, Staphylococcus aureus; conditions: SAAM 12, clinical strain resistant to methicillin; 18 to 24 h at 37°C
# Procedure: as §5
# SAAM 27 = test: Antibacterial test, MIC by CLSI broth dilution; format: cell-based, Staphylococcus aureus; conditions: SAAM 27, clinical strain resistant to methicillin; 18 to 24 h at 37°C
# Procedure: as §5
# SAAM 51 = test: Antibacterial test, MIC by CLSI broth dilution; format: cell-based, Staphylococcus aureus; conditions: SAAM 51, clinical strain resistant to methicillin; 18 to 24 h at 37°C
# Procedure: as §5
# SAAM 64 = test: Antibacterial test, MIC by CLSI broth dilution; format: cell-based, Staphylococcus aureus; conditions: SAAM 64, clinical strain resistant to methicillin; 18 to 24 h at 37°C
# Procedure: as §5
# SAAM 69 = test: Antibacterial test, MIC by CLSI broth dilution; format: cell-based, Staphylococcus aureus; conditions: SAAM 69, clinical strain resistant to methicillin; 18 to 24 h at 37°C
# Procedure: as §5
# SAAM 86 = test: Antibacterial test, MIC by CLSI broth dilution; format: cell-based, Staphylococcus aureus; conditions: SAAM 86, clinical strain resistant to methicillin; 18 to 24 h at 37°C
# Procedure: as §5
# SAAM 95 = test: Antibacterial test, MIC by CLSI broth dilution; format: cell-based, Staphylococcus aureus; conditions: SAAM 95, clinical strain resistant to methicillin; 18 to 24 h at 37°C
# Procedure: as §5
# SAAM 98 = test: Antibacterial test, MIC by CLSI broth dilution; format: cell-based, Staphylococcus aureus; conditions: SAAM 98, clinical strain resistant to methicillin; 18 to 24 h at 37°C
# Procedure: as §5
# [3] = W2 clone, chloroquine resistant, 1 parasitic cycle (45h), bracket = uncertainty in %
# [4] = 3D7 clone, sensitive, 1 parasitic cycle (45h), bracket = uncertainty in %
SMILES,"pIC50 [1, 3]","pIC50 [2, 4]",minimum inhibitory concentrations (MICs) (E. coli DSM 1103),minimum inhibitory concentrations (MICs) (P. aeruginosa DSM 1117),minimum inhibitory concentrations (MICs) (S. aureus CIP 103429),minimum inhibitory concentrations (MICs) (E. faecalis CIP 103214),minimum inhibitory concentrations (MICs) (SAAM 12),minimum inhibitory concentrations (MICs) (SAAM 27),minimum inhibitory concentrations (MICs) (SAAM 51),minimum inhibitory concentrations (MICs) (SAAM 64),minimum inhibitory concentrations (MICs) (SAAM 69),minimum inhibitory concentrations (MICs) (SAAM 86),minimum inhibitory concentrations (MICs) (SAAM 95),minimum inhibitory concentrations (MICs) (SAAM 98),"pIC50 ([1]; W2, 45 h)","pIC50 ([2]; 3D7, 45 h)"
"CCCCCNC[C@H](O)c1cc(C(F)(F)F)nc2c(C(F)(F)F)cccc12 [Compound 1c, (R)-1-(2,8-bis(trifluoromethyl)quinolin-4-yl)-2-(pentylamino)ethanol]",7.42,7.13,32 µg/mL,>128 µg/mL,16 to 32 µg/mL,16 to 32 µg/mL,8 µg/mL,8 µg/mL,8 µg/mL,16 µg/mL,8 µg/mL,16 µg/mL,8 µg/mL,16 µg/mL,–,–
"O[C@@H](CNCc1ccccc1)c1cc(C(F)(F)F)nc2c(C(F)(F)F)cccc12 [Compound 1a, (R)-2-(benzylamino)-1-(2,8-bis(trifluoromethyl)quinolin-4-yl)ethanol]",7.39,6.98,>128 µg/mL,>128 µg/mL,>128 µg/mL,>128 µg/mL,4 µg/mL,4 µg/mL,4 µg/mL,>128 µg/mL,8 µg/mL,8 µg/mL,4 µg/mL,>128 µg/mL,–,–
"CCN(CC)CCCC(C)Nc1ccnc2cc(Cl)ccc12 (centres unmarked) [CQ, chloroquine, reference compound]",–,–,–,–,–,–,–,–,–,–,–,–,–,–,6.24,7.49
"CCCCCNC[C@@H](O)c1cc(C(F)(F)F)nc2c(C(F)(F)F)cccc12 [Compound 1h, (S)-1-(2,8-bis(trifluoromethyl)quinolin-4-yl)-2-(pentylamino)ethanol]",8.16,8.08,16 µg/mL,>128 µg/mL,16 to 32 µg/mL,16 to 32 µg/mL,8 µg/mL,8 µg/mL,8 µg/mL,16 µg/mL,8 µg/mL,16 µg/mL,8 µg/mL,16 µg/mL,–,–
